Laboratory results from US20110287100A1, “Galenic Formulations of Organic Compounds” (priority 2009, published 2011).
Read-outs that look alike come from different tables or passages of the source.

Legend:
Water solubility = format: physicochemical; conditions: between pH 1 and 8
[1] = Pharmacokinetics in pediatric patients, open label multiple dose study; conditions: human, in vivo; for AUC: read-out: AUCtau, Mean; for Tmax: read-out: Tmax, Median; for half-life: read-out: T½, Mean (converted)
Procedure: An open label, multiple dose pharmacokinetic and pharmacodynamic study was performed in 24 pediatric patients, ages 6-17 years. […] Blood samples were collected on days one and eight and pharmacokinetics were assessed using a non-compartmental analysis approach.

[2] = 2 mg/kg, 6-11 yrs old, 2 mg/kg, Day 1
[3] = 2 mg/kg, 6-11 yrs old, 2 mg/kg, Day 8
[4] = 2 mg/kg, 12-17 yrs old, 2 mg/kg, Day 1
[5] = 2 mg/kg, 12-17 yrs old, 2 mg/kg, Day 8
[6] = 6 mg/kg, 6-11 yrs old, 6 mg/kg, Day 1
[7] = 6 mg/kg, 6-11 yrs old, 6 mg/kg, Day 8
[8] = 6 mg/kg, 12-17 yrs old, 6 mg/kg, Day 1
[9] = 6 mg/kg, 12-17 yrs old, 6 mg/kg, Day 8

solubility (Water solubility): > 350 mg/mL | Cmax [1, 2]: 39 ng/mL | AUC [1, 2]: 149 ng·h/mL | Tmax [1, 2]: 0.5 h | Cmax [1, 3]: 48 ng/mL | AUC [1, 3]: 240 ng·h/mL | Tmax [1, 3]: 0.5 h | half-life [1, 3]: 2400 min | Cmax [1, 4]: 136 ng/mL | AUC [1, 4]: 391 ng·h/mL | Tmax [1, 4]: 1 h | Cmax [1, 5]: 279 ng/mL | AUC [1, 5]: 846 ng·h/mL | Tmax [1, 5]: 1 h | half-life [1, 5]: 2400 min | Cmax [1, 6]: 323 ng/mL | AUC [1, 6]: 1840 ng·h/mL | Tmax [1, 6]: 1.3 h | Cmax [1, 7]: 259 ng/mL | AUC [1, 7]: 956 ng·h/mL | Tmax [1, 7]: 0.8 h | half-life [1, 7]: 2160 min | Cmax [1, 8]: 424 ng/mL | AUC [1, 8]: 1800 ng·h/mL | Tmax [1, 8]: 1.8 h | Cmax [1, 9]: 486 ng/mL | AUC [1, 9]: 2090 ng·h/mL | Tmax [1, 9]: 2 h | half-life [1, 9]: 2520 min
SMILES: COCCCOc1cc(C[C@@H](C[C@H](N)[C@@H](O)C[C@H](C(=O)NCC(C)(C)C(N)=O)C(C)C)C(C)C)ccc1OC [Aliskiren, 2(S),4(S),5(S),7(S)—N-(3-amino-2,2-dimethyl-3-oxopropyl)-2,7-di(1-methylethyl)-4-hydroxy-5-amino-8-[4-methoxy-3-(3-methoxy-propoxy)phenyl]-octanamide]
